Measured values: US11040036B2, “Pyruvate kinase activators for use in treating blood disorders” (Agios Pharmaceuticals, Inc., priority 2017, dated 2021)

Legend:
[1] = biological target: T1, wild type PKR (Homo sapiens, UniProt P30613); experiment: Cell based ATP assay in purified red blood cells; design: endogenous in cells; host or cells: purified red blood cells from blood of healthy volunteers; settings: RBCs, overnight at 37° C., ATP levels by Cell-Titer-Glo
Description: Example 16. Red Blood Cell (RBC) Purification
Fresh blood drawn from healthy volunteers into K2EDTA tubes was collected. Whole blood was pelleted by spinning at 500 g for 10 minutes. Cut transfusion bag port off of Purecell leukocyte reduction neofilter (Fisher NCO267633) one (1) inch above filter. Attach a 10 ml syringe barrel to the remaining cut tubing attached to neofilter. The plasma layer was removed from the pellet of the whole blood and the pellet was resuspended in 2× volume of phosphate buffered saline (PBS). Transfer 9 ml re-suspended blood cell pellet to prepared 10 ml syringe that is attached to the neofilter. Allow whole blood to gravity flow through filter until all fluid runs through upper tubing into filter disc. Add plunger to the syringe, remove syringe from clamp and invert the filter, then plunge air through the syringe filter system. Using a new 5 ml syringe, remove filtered RBCs from the bag by the syringe port and transfer purified RBCs to a 5 ml snap cap tube that has been incubated on ice. Spin 5 ml snap cap tube at 500 g for 10 minutes at 15 C, aspirate supernatant and resuspend in AGAM (1×PBS, 1% glucose, 170 mg/L adenine, 5.25 g/L mannitol) at a density of 4×10^9 cells/mL.
Example 17. Cell Based ATP Assay
For cell based ATP assays, the compound as described herein was prepared in 100% DMSO as a 10 mM stock. Serial dilutions (1:4) were performed in 96-well V-bottom storage plate and then added 1:100 to 96-well V-bottom plates containing AGAM. RBCs were diluted in AGAM media to a density of 1×10^7 cells/mL before added 90 μL/well to black clear bottom assay plates (final compound concentration at 0.1% DMSO concentration). Assay plates were sealed using aluminum foil seals and incubated overnight at 37° C. in a humidified chamber. ATP levels were read out using Cell-Titer-Glo (Promega).

[2] = biological target: PKR R510Q (Homo sapiens, UniProt P30613, R510Q); experiment: PKR mutant assay (AC50), PKR R510Q; format: biochemical; settings: PKR R510Q mutant enzyme; read-out: PK R510Q AC50
Description: (§1) Example 11. PKR Mutant Assay
(§2) PKR or PKR mutant enzyme solution was diluted into a reaction mix, which contains 1× buffer (100 mM KCl, 50 mM Tris pH 7.5, 5 mM MgCl2) as well as PEP (cont depends on enzyme), 180 μM NADH, 0.5 units LDH, 1 mM DTT, 0.03% BSA; final assay concentrations after 1.11 fold dilution are indicated.
(§3) 2 μL of test compound was added into wells first, and then 180 μL reaction mix was added.
(§4) Reactions mixture with test compound was assembled except for ADP, and plates were stored for 60 minutes at room temperature.
(§5) 20 uL ADP was added to start reaction at room temperature and reaction progress was measured as changes in absorbance at 340 nm wavelength at room temperature.
(§6) Test Compound Preparation:
(§7) Test compound stock was made at 100× concentration in 100% DMSO (10 mM)
(§8) 1 to 3 dilutions were made for 11 points (i.e. 50 μl of first concentration added to 100 μl 100% DMSO to yield 3.33 mM, 50 μl of this added to 100 μl DMSO to yield 1.11 mM, and so forth) • 1 to 100 dilution into assay (2 μl in 200 μl) yielded starting concentration of 100 μM, decreasing 3 fold for 11 points.
(§9) Assay Buffer: 100 mM KCl, 50 mM Tris 7.5, 5 mM MgCl2, 1 ruM DTT, 0.03% BSA
(§10) Reaction Mixture: PKR mutant enzyme: 40-400 ng/well; ADP: 0.2-1.65 mM; PEP: 0.1-0.5 mM; NADH:180 μM; LDH: 0.5 units (Sigma #59023); DTT: 1 mM; BSA: 0.03%.

[3] = biological target: PKR K410E (Homo sapiens, UniProt P30613, K410E); experiment: PKR mutant assay (AC50), PKR K410E; format: biochemical; settings: PKR K410E mutant enzyme
Description: as §1, §2, §3, §4, §5, §6, §7, §8, §9, §10

[4] = biological target: T1, wild type PKR; experiment: PKR mutant assay (AC50), wild type PKR; format: biochemical; settings: wild type PKR enzyme; read-out: PKR WT AC50
Description: as §1, §2, §3, §4, §5, §6, §7, §8, §9, §10

Sequence of PKR R510Q (P30613 whole entry R510Q): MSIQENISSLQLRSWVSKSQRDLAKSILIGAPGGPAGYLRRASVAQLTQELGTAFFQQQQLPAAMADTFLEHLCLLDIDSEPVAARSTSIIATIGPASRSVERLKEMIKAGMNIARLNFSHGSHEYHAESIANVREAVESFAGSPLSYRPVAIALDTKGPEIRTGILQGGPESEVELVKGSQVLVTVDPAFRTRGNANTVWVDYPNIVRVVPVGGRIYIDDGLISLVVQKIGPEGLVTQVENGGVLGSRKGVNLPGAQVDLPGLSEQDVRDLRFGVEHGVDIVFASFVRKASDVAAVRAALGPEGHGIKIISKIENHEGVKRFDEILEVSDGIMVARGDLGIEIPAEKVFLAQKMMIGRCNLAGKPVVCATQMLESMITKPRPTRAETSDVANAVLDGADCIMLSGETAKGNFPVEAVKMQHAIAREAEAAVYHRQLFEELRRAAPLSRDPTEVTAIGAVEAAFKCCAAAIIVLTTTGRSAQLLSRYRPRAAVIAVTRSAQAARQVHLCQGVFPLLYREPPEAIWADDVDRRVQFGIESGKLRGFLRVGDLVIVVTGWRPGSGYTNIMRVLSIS
Sequence of PKR K410E (P30613 whole entry K410E): as the sequence (P30613 whole entry R510Q) above, with K410E, Q510R counted along it
T1 sequence (P30613 whole entry): as the sequence (P30613 whole entry R510Q) above, with Q510R counted along it

Row | SMILES | AC50 [1] [nM] | AC50 [2] [nM] | AC50 [3] [nM] | AC50 [4] [nM]
1 | Cn1c2nc(Cc3cc[nH]n3)sc2c2cnn(Cc3csc(N)n3)c(=O)c21 | ≤ 1000 | < 300 | < 300 | < 300
2 | Cn1c2nc(Cc3cc[nH]n3)sc2c2cnn(Cc3nc[nH]c3C(N)=O)c(=O)c21 | > 1000 | > 800 | 301 to 800 | 301 to 800
3 | Cn1c2nc(Cc3cc[nH]n3)sc2c2cnn(Cc3c[nH]nn3)c(=O)c21 | ≤ 1000 | < 300 | < 300 | < 300
4 | Cn1c2nc(Cc3cc[nH]n3)sc2c2cnn(Cc3cccc(=O)[nH]3)c(=O)c21 | > 1000 | 301 to 800 | < 300 | < 300
5 | Cn1c2nc(C(O)c3cc[nH]n3)sc2c2cnn(Cc3cc[nH]n3)c(=O)c21 (centres unmarked) | ≤ 1000 | < 300 | < 300 | < 300
6 | Cn1c2nc(Cc3cc[nH]n3)sc2c2cnn(Cc3cc(F)[nH]n3)c(=O)c21 | ≤ 1000 | < 300 | < 300 | < 300
7 | Cn1c2nc(Cc3cc[nH]n3)sc2c2cnn(Cc3cc(C(N)=O)[nH]n3)c(=O)c21 | > 1000 | > 800 | 301 to 800 | 301 to 800
8 | Cn1cc(C#N)c(Cn2ncc3c4sc(Cc5cc[nH]n5)nc4n(C)c3c2=O)n1 | ≤ 1000 | < 300 | < 300 | < 300
9 | Cn1c2nc(Cc3cc[nH]n3)sc2c2cnn(Cc3coc(Cl)n3)c(=O)c21 | ≤ 1000 | < 300 | < 300 | < 300
10 | Cn1c2nc(Cc3cc[nH]n3)sc2c2cnn(Cc3cncs3)c(=O)c21 | ≤ 1000 | < 300 | < 300 | < 300
11 | CC(=O)Nc1ccc(F)c(Cn2ncc3c4sc(Cc5cnn(C)c5)nc4n(C)c3c2=O)n1 | > 1000 | > 800 | > 800 | > 800
12 | Cn1c2nc(Cn3ccnn3)sc2c2cnn(Cc3cc[nH]n3)c(=O)c21 | ≤ 1000 | < 300 | < 300 | < 300
13 | Cn1c2nc(Cc3c[nH]nn3)sc2c2cnn(Cc3cc[nH]n3)c(=O)c21 | ≤ 1000 | < 300 | < 300 | < 300
14 | COc1ncccc1Cn1ncc2c3sc(Cc4cc[nH]n4)nc3n(C)c2c1=O | ≤ 1000 | < 300 | < 300 | < 300
15 | Cn1cc(N)c(Cn2ncc3c4sc(Cc5cc[nH]n5)nc4n(C)c3c2=O)n1 | ≤ 1000 | < 300 | < 300 | < 300
16 | Cn1c2nc(Cc3cc[nH]n3)sc2c2cnn(Cc3ccc[nH]c3=O)c(=O)c21 | ≤ 1000 | < 300 | < 300 | < 300

Row | SMILES | AC50 [1] [nM] | AC50 [2] [nM] | AC50 [3] [nM] | AC50 [4] [nM]
17 | Cn1c2nc(Cc3cccc(N)n3)sc2c2cnn(Cc3cscn3)c(=O)c21 | ≤ 1000 | < 300 | < 300 | < 300
18 | Cn1c2nc(Cc3n[nH]cc3F)sc2c2cnn(Cc3ncsc3Cl)c(=O)c21 | ≤ 1000 | < 300 | < 300 | < 300
19 | Cc1scnc1Cn1ncc2c3sc(Cc4n[nH]cc4F)nc3n(C)c2c1=O | ≤ 1000 | < 300 | < 300 | < 300
20 | Cn1c2nc(Cc3n[nH]cc3F)sc2c2cnn(Cc3n[nH]cc3C#N)c(=O)c21 | ≤ 1000 | < 300 | < 300 | < 300
21 | Cn1ccc(Cn2ncc3c4sc(Cc5ccccn5)nc4n(C)c3c2=O)n1 | ≤ 1000 | < 300 | < 300 | < 300
22 | Cn1ccc(Cn2ncc3c4sc(Cc5cscn5)nc4n(C)c3c2=O)n1 | ≤ 1000 | < 300 | < 300 | < 300
23 | Cn1nncc1Cn1ncc2c3sc(Cc4cc[nH]n4)nc3n(C)c2c1=O | > 1000 | > 800 | > 800 | > 800
24 | Cn1c2nc(Cc3cc[nH]n3)sc2c2cnn(Cc3ncoc3C(N)=O)c(=O)c21 | ≤ 1000 | < 300 | < 300 | < 300
25 | Cn1ccc(Cc2nc3c(s2)c2cnn(Cc4ccn(C)n4)c(=O)c2n3C)n1 | ≤ 1000 | < 300 | < 300 | < 300
26 | Cn1c2nc(Cc3cc[nH]n3)sc2c2cnn(Cc3n[nH]cc3OC(F)(F)F)c(=O)c21 | > 1000 | 301 to 800 | 301 to 800 | 301 to 800
27 | Cn1ccc(Cc2nc3c(s2)c2cnn(Cc4c[nH]nn4)c(=O)c2n3C)n1 | ≤ 1000 | < 300 | < 300 | < 300
28 | Cn1c2nc(Cc3cc[nH]n3)sc2c2cnn(Cc3ccsn3)c(=O)c21 | ≤ 1000 | < 300 | < 300 | < 300
29 | COc1ncccc1Cn1ncc2c3sc(Cc4n[nH]cc4F)nc3n(C)c2c1=O | ≤ 1000 | < 300 | < 300 | < 300
30 | Cn1c2nc(Cc3cc[nH]n3)sc2c2cnn(Cc3ncc[nH]3)c(=O)c21 | ≤ 1000 | < 300 | < 300 | < 300
31 | Cn1cc(CN)c(Cn2ncc3c4sc(Cc5cc[nH]n5)nc4n(C)c3c2=O)n1 | > 1000 | < 300 | > 800 | > 800
32 | Cn1c2nc(Cc3cc[nH]n3)sc2c2cnn(Cc3csc(C(N)=O)n3)c(=O)c21 | ≤ 1000 | < 300 | < 300 | < 300
